# Data from ChEMBL document CHEMBL3046635, “Synthesis and Herbicidal Activity of New Pyrazole-4-carboxamide Derivatives” (J Pestic Sci, 2004).
# Calls of active or inactive are those of the source.
# Experiments:
# [1] = test system: Ammannia multiflora; assay: Post-emergence herbicidal activity against Ammannia multiflora assessed as bleaching of stem/leaf parts; assay type: functional, organism-based; note: test concentration or dose not given here
# [2] = test system: Rotala indica; assay: Post-emergence herbicidal activity against Rotala indica assessed as bleaching of stem/leaf parts; assay type: functional, organism-based; note: test concentration or dose not given here
# [3] = test system: Eleocharis acicularis; assay: Pre-emergence herbicidal activity against Eleocharis acicularis assessed as bleaching of stem/leaf parts; assay type: functional, organism-based
# [4] = test system: Elatine triandra; assay: Post-emergence herbicidal activity against Elatine triandra assessed as bleaching of stem/leaf parts; assay type: functional, organism-based; note: test concentration or dose not given here
# [5] = test system: Ammannia multiflora; assay: Pre-emergence herbicidal activity against Ammannia multiflora at 2000 g a.i/ha measured after 14 days; assay type: functional, organism-based
# [6] = test system: Echinochloa oryzicola; assay: Pre-emergence herbicidal activity against Echinochloa oryzicola at 2000 g a.i/ha measured after 14 days; assay type: functional, organism-based
# [7] = test system: Ammannia multiflora; assay: Pre-emergence herbicidal activity against Ammannia multiflora assessed as bleaching of stem/leaf parts; assay type: functional, organism-based
# [8] = test system: Echinochloa oryzicola; assay: Pre-emergence herbicidal activity against Echinochloa oryzicola assessed as bleaching of stem/leaf parts; assay type: functional, organism-based
# [9] = test system: Eleocharis acicularis; assay: Pre-emergence herbicidal activity against Eleocharis acicularis at 2000 g a.i/ha measured after 14 days; assay type: functional, organism-based
# [10] = test system: Rotala indica; assay: Pre-emergence herbicidal activity against Rotala indica assessed as bleaching of stem/leaf parts; assay type: functional, organism-based
# [11] = test system: Elatine triandra; assay: Pre-emergence herbicidal activity against Elatine triandra assessed as bleaching of stem/leaf parts; assay type: functional, organism-based
# [12] = test system: Oryza sativa; assay: Phytotoxicity against Oryza sativa cv. Koshihikari (rice) at 2000 g a.i/ha measured after 14 days; assay type: organism-based; conditions: in vivo, 336 h
# [13] = test system: Schoenoplectiella juncoides; assay: Pre-emergence herbicidal activity against Schoenoplectiella juncoides assessed as bleaching of stem/leaf parts; assay type: functional, organism-based
# [14] = test system: Echinochloa oryzicola; assay: Post-emergence herbicidal activity against Echinochloa oryzicola assessed as bleaching of stem/leaf parts; assay type: functional, organism-based; note: test concentration or dose not given here
# [15] = test system: Schoenoplectiella juncoides; assay: Post-emergence herbicidal activity against Schoenoplectiella juncoides assessed as bleaching of stem/leaf parts; assay type: functional, organism-based; note: test concentration or dose not given here
# [16] = test system: Elatine triandra; assay: Pre-emergence herbicidal activity against Elatine triandra at 2000 g a.i/ha measured after 14 days; assay type: functional, organism-based
# [17] = test system: Eleocharis acicularis; assay: Post-emergence herbicidal activity against Eleocharis acicularis assessed as bleaching of stem/leaf parts; assay type: functional, organism-based; note: test concentration or dose not given here
# [18] = test system: Pontederia vaginalis; assay: Pre-emergence herbicidal activity against Monochoria vaginalis assessed as bleaching of stem/leaf parts; assay type: functional, organism-based
# [19] = test system: Schoenoplectiella juncoides; assay: Pre-emergence herbicidal activity against Schoenoplectiella juncoides at 2000 g a.i/ha measured after 14 days; assay type: functional, organism-based
# [20] = test system: Cyperus difformis; assay: Pre-emergence herbicidal activity against Cyperus difformis assessed as bleaching of stem/leaf parts; assay type: functional, organism-based
# [21] = test system: Cyperus difformis; assay: Pre-emergence herbicidal activity against Cyperus difformis at 2000 g a.i/ha measured after 14 days; assay type: functional, organism-based
# [22] = test system: Lindernia procumbens; assay: Pre-emergence herbicidal activity against Lindernia procumbens at 2000 g a.i/ha measured after 14 days; assay type: functional, organism-based
# [23] = test system: Pontederia vaginalis; assay: Post-emergence herbicidal activity against Monochoria vaginalis assessed as bleaching of stem/leaf parts; assay type: functional, organism-based; note: test concentration or dose not given here
# [24] = test system: Lindernia procumbens; assay: Post-emergence herbicidal activity against Lindernia procumbens assessed as bleaching of stem/leaf parts; assay type: functional, organism-based; note: test concentration or dose not given here
# [25] = test system: Rotala indica; assay: Pre-emergence herbicidal activity against Rotala indica at 2000 g a.i/ha measured after 14 days; assay type: functional, organism-based
# [26] = test system: Cyperus difformis; assay: Post-emergence herbicidal activity against Cyperus difformis assessed as bleaching of stem/leaf parts; assay type: functional, organism-based; note: test concentration or dose not given here
# [27] = test system: Pontederia vaginalis; assay: Pre-emergence herbicidal activity against Monochoria vaginalis at 2000 g a.i/ha measured after 14 days; assay type: functional, organism-based
# [28] = test system: Lindernia procumbens; assay: Pre-emergence herbicidal activity against Lindernia procumbens assessed as bleaching of stem/leaf parts; assay type: functional, organism-based
# [29] = test system: Cyperus difformis; assay: Pre-emergence herbicidal activity against Cyperus difformis at 100 g a.i/ha measured after 14 days; assay type: functional, organism-based
# [30] = test system: Eleocharis acicularis; assay: Pre-emergence herbicidal activity against Eleocharis acicularis at 100 g a.i/ha measured after 14 days; assay type: functional, organism-based
# [31] = test system: Pontederia vaginalis; assay: Pre-emergence herbicidal activity against Monochoria vaginalis at 500 g a.i/ha measured after 14 days; assay type: functional, organism-based
# [32] = test system: Schoenoplectiella juncoides; assay: Pre-emergence herbicidal activity against Schoenoplectiella juncoides at 500 g a.i/ha measured after 14 days; assay type: functional, organism-based
# [33] = test system: Echinochloa oryzicola; assay: Pre-emergence herbicidal activity against Echinochloa oryzicola at 100 g a.i/ha measured after 14 days; assay type: functional, organism-based
# [34] = test system: Eleocharis acicularis; assay: Pre-emergence herbicidal activity against Eleocharis acicularis at 500 g a.i/ha measured after 14 days; assay type: functional, organism-based
# [35] = test system: Ammannia multiflora; assay: Pre-emergence herbicidal activity against Ammannia multiflora at 100 g a.i/ha measured after 14 days; assay type: functional, organism-based
# [36] = test system: Rotala indica; assay: Pre-emergence herbicidal activity against Rotala indica at 500 g a.i/ha measured after 14 days; assay type: functional, organism-based
# [37] = test system: Elatine triandra; assay: Pre-emergence herbicidal activity against Elatine triandra at 100 g a.i/ha measured after 14 days; assay type: functional, organism-based
# [38] = test system: Ammannia multiflora; assay: Pre-emergence herbicidal activity against Ammannia multiflora at 500 g a.i/ha measured after 14 days; assay type: functional, organism-based
# [39] = test system: Schoenoplectiella juncoides; assay: Pre-emergence herbicidal activity against Schoenoplectiella juncoides at 100 g a.i/ha measured after 14 days; assay type: functional, organism-based
# [40] = test system: Lindernia procumbens; assay: Pre-emergence herbicidal activity against Lindernia procumbens at 100 g a.i/ha measured after 14 days; assay type: functional, organism-based
# [41] = test system: Elatine triandra; assay: Pre-emergence herbicidal activity against Elatine triandra at 500 g a.i/ha measured after 14 days; assay type: functional, organism-based
# [42] = test system: Oryza sativa; assay: Phytotoxicity against Oryza sativa cv. Koshihikari (rice) at 500 g a.i/ha measured after 14 days; assay type: organism-based; conditions: in vivo, 336 h
# [43] = test system: Echinochloa oryzicola; assay: Pre-emergence herbicidal activity against Echinochloa oryzicola at 500 g a.i/ha measured after 14 days; assay type: functional, organism-based
# [44] = test system: Oryza sativa; assay: Phytotoxicity against Oryza sativa cv. Koshihikari (rice) at 100 g a.i/ha measured after 14 days; assay type: organism-based; conditions: in vivo, 336 h
# [45] = test system: Rotala indica; assay: Pre-emergence herbicidal activity against Rotala indica at 100 g a.i/ha measured after 14 days; assay type: functional, organism-based
# [46] = test system: Cyperus difformis; assay: Pre-emergence herbicidal activity against Cyperus difformis at 500 g a.i/ha measured after 14 days; assay type: functional, organism-based
# [47] = test system: Lindernia procumbens; assay: Pre-emergence herbicidal activity against Lindernia procumbens at 500 g a.i/ha measured after 14 days; assay type: functional, organism-based
# [48] = test system: Pontederia vaginalis; assay: Pre-emergence herbicidal activity against Monochoria vaginalis at 100 g a.i/ha measured after 14 days; assay type: functional, organism-based
SMILES,Activity [1],Activity [2],Activity [3],Activity [4],Activity [5],Activity [6],Activity [7],Activity [8],Activity [10],Activity [11],Activity [13],Activity [14],Activity [15],Activity [17],Activity [18],Activity [20],Activity [23],Activity [24],Activity [26],Activity [28],other results
CCCN(CC)C(=O)c1cn(C)nc1OCc1ccc(C(F)(F)F)cc1,Active,Active,Active,Active,Active,inactive,Active,Active,Active,Active,Active,Active,Active,Active,Active,Active,Active,Active,Active,Active,Activity [9]: inactive; Activity [12]: Non-toxic; Activity [16]: Active; Activity [19]: Active; Activity [21]: inactive; Activity [22]: Active; Activity [25]: Active; Activity [27]: Active
CCCN(CC)C(=O)c1cn(C)nc1OC,Active,Active,Active,Active,inactive,inactive,Active,Active,Active,Active,Active,Active,Active,Active,Active,Active,Active,Active,Active,Active,Activity [9]: inactive; Activity [12]: Non-toxic; Activity [16]: inactive; Activity [19]: inactive; Activity [21]: inactive; Activity [22]: inactive; Activity [25]: inactive; Activity [27]: inactive
CCCN(CC)C(=O)c1cn(C)nc1OCc1cccc(C)c1,Active,Active,Active,Active,Active,inactive,Active,Active,Active,Active,Active,Active,Active,Active,Active,Active,Active,Active,Active,Active,Activity [12]: Non-toxic; Activity [16]: Active; Activity [19]: Active; Activity [21]: Active; Activity [22]: Active; Activity [25]: Active; Activity [27]: Active
Cn1cc(C(=O)NOc2ccc(F)cc2)c(OCc2cccc(C(F)(F)F)c2)n1,Active,Active,Active,Active,–,–,Active,Active,Active,Active,Active,Active,Active,Active,Active,Active,Active,Active,Active,Active,Activity [29]: inactive; Activity [30]: Active; Activity [31]: Active; Activity [32]: Active; Activity [33]: inactive; Activity [34]: Active; Activity [35]: Active; Activity [36]: Active; Activity [37]: Active; Activity [38]: Active; Activity [39]: inactive; Activity [40]: Active; Activity [41]: Active; Activity [42]: Non-toxic; Activity [43]: Active; Activity [44]: Non-toxic; Activity [45]: Active; Activity [46]: Active; Activity [47]: Active; Activity [48]: Active
CCCCONC(=O)c1cn(C)nc1OCc1cccc(C(F)(F)F)c1,Active,Active,Active,Active,–,–,Active,Active,Active,Active,Active,Active,Active,Active,Active,Active,Active,Active,Active,Active,Activity [29]: Active; Activity [30]: Active; Activity [31]: Active; Activity [32]: Active; Activity [33]: Active; Activity [34]: Active; Activity [35]: Active; Activity [36]: Active; Activity [37]: Active; Activity [38]: Active; Activity [39]: Active; Activity [40]: Active; Activity [41]: Active; Activity [42]: Toxic; Activity [43]: Active; Activity [44]: Non-toxic; Activity [45]: Active; Activity [46]: Active; Activity [47]: Active; Activity [48]: Active
CCONC(=O)c1cn(CC)nc1OCc1cccc(C(F)(F)F)c1,Active,Active,Active,Active,–,–,Active,Active,Active,Active,Active,Active,Active,Active,Active,Active,Active,Active,Active,Active,Activity [29]: Active; Activity [30]: inactive; Activity [31]: Active; Activity [32]: Active; Activity [33]: Active; Activity [34]: Active; Activity [35]: Active; Activity [36]: Active; Activity [37]: Active; Activity [38]: Active; Activity [39]: inactive; Activity [40]: Active; Activity [41]: Active; Activity [42]: Non-toxic; Activity [43]: Active; Activity [44]: Non-toxic; Activity [45]: Active; Activity [46]: Active; Activity [47]: Active; Activity [48]: inactive
